The values that follow are results of earlier work, collected in US4083974A, “Topical steroidal anti-inflammatory preparations containing polyoxypropylene 15 stearyl ether” (The Upjohn Company, priority 1977, dated 1978).

For series [1] the following is noted: known property of the prior-art solvent.
For series [2] the following is noted: known property from the art.
A further series relates to bacterial. The note with it: prior art; composition contains approximately 15% ethyl alcohol.

For the molecule `CC(O)CO` (stereo not drawn) [Propylene glycol, propylene glycol], in series [1], the “irritation to the skin” value is given as “irritating to the skin”. Moreover, the lubricant properties result in series [2] was “non-lubricant”.

With `CCO` [ethyl alcohol], the anti-bacterial activity result with bacterial is on record as “known anti-bacterial agent”.
